# Laboratory results from patent US20190060463A1, “BRIDGED POLYETHYLENE GLYCOL-ALIPHATIC POLYESTER BLOCK COPOLYMER, PREPARATION METHOD FOR SAME, INTERMEDIATE OF SAME, AND USES THEREOF” (University Of Science And Technology Of China, priority 2015, published 2019).
# System: MDA-MB-231 in situ breast cancer mouse tumor model
# Assay: Inhibition of breast cancer growth by nanoparticles carrying docetaxel
# Assay type: in vivo, nude mouse
# Conditions: 70 μg DTXL (3.5 mg/kg), 3 administrations, period 7 days
# Description: In this Example, a MDA-MB-231 in situ breast cancer mouse tumor model was used. The specific process of establishing the model was as follows. MDA-MB-231 cells were cultured in a DMEM complete medium. The cells were cultured with a serum-free DMEM 6 hours before the model was established, and digested with trypsin. The cells were collected by centrifugation at 1000 rpm, and resuspended with PBS to allow the density of the cells to be up to 2×10^7cells/mL. 100 μL of the cell suspension was injected to the second right breast of a nude mouse. In this Example, mPEG113-b-PDLLA72, mPEG113-Dlinkm-PDLLA70, and mPEG113-Dlink-PDLLA75 were used to produce drug loaded nanoparticles.
# Nude mice, which were injected with breast cancer cells in situ, were bred in a SPF-level animal room for about 7 days, and visible tumors may be formed. The volume of the tumor was calculated according to the equation: V=0.5*a*b*b, wherein a refers to a longer diameter of the tumor and b refers to a shorter diameter of the tumor. When the tumor volume of the nude mouse reaches about 60 mm^3, treatment was performed. 20 g nude mice inoculated with MDA-MB-231 tumor were divided into 5 groups according to the following manners of treatment, and each group has 5 nude mice. […] A treatment period was 7 days and 3 administrations were performed. The tumor volume was measured every 3 days. […]
structure (smiles),measurement,value
"CC(=O)O[C@@]12CO[C@@H]1C[C@H](O)[C@@]1(C)C(=O)[C@H](O)C3=C(C)[C@@H](OC(=O)[C@H](O)[C@@H](NC(=O)OC(C)(C)C)c4ccccc4)C[C@@](O)([C@@H](OC(=O)c4ccccc4)[C@H]21)C3(C)C [DTXL, docetaxel]",inhibitory effect on tumor growth,no inhibitory effect
